{"source": "ChEMBL document CHEMBL5576045", "about": "“M1/M4 receptors as potential therapeutic treatments for schizophrenia: A comprehensive study” (Bioorg Med Chem, 2024)", "target": "T1, Muscarinic acetylcholine receptor M4 (Homo sapiens) (UniProt P08173)", "T1 sequence (whole entry)": "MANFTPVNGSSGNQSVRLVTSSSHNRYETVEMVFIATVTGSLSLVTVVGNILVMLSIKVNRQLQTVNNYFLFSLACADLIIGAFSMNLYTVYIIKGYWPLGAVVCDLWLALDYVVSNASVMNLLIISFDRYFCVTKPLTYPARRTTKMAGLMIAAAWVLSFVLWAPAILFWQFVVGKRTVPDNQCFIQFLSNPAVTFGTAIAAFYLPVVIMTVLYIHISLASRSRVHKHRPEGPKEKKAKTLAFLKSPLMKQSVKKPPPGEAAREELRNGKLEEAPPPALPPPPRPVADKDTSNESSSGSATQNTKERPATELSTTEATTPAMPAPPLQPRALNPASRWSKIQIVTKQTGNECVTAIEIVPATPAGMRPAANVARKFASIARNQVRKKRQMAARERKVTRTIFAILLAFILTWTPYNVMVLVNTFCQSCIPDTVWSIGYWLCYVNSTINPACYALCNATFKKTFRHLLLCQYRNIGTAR", "assay": "Binding affinity to M4 receptor (unknown origin) assessed as fold change in presence of acetylcholine", "data": [{"smiles": "CC1=C(CCO)SC2=Nc3nc(C)ncc3CN21", "values": [{"measurement": "fold change (FC)", "value": 3}]}]}
